Data from US20250011368A1, “DLL3 TARGETING PEPTIDES AND CONSTRUCTS THEREOF” (MARIANA ONCOLOGY INC., priority 2023, published 2025).
Bridge positions count the residues as written; N and C are the ends. Square brackets hold non-standard residues; d marks the D form. Peptide text beside a SMILES is read from it. * marks the point of attachment. ξ: configuration not given here. TtdsdLys(DOTA)NH2 = NC(=O)[C@@H](CCCCNC(=O)CN1CCN(CC(=O)O)CCN(CC(=O)O)CCN(CC(=O)O)CC1)NC(=O)CCC(=O)NCCCOCCOCCOCCCN*; X4 = O=C(O)CN1CCN(CC(=O)O)CCN(CC(=O)N[C@H]2CC[C@H](CC(=O)*)CC2)CCN(CC(=O)O)CC1; DOTA = O=C(O)CN1CCN(CC(=O)O)CCN(CC(=O)*)CCN(CC(=O)O)CC1; Trp(7-aza) = N[C@@H](Cc1c[nH]c2ncccc12)C(=O)O; 2Nal = N[C@@H](Cc1ccc2ccccc2c1)C(=O)O; Nva(3-Et) = CCC(CC)[C@H](N)C(=O)O; ξThr(3R) = C[C@@H](O)C(N)C(=O)O; Cha = N[C@@H](CC1CCCCC1)C(=O)O; Chg = N[C@H](C(=O)O)C1CCCCC1

biological target: T1, human DLL3 (Homo sapiens, UniProt Q9NYJ7); assay: Affinity determination by Surface Plasmon Resonance (SPR); format: binding; settings: 25° C., biotinylated human DLL3 immobilized on streptavidin sensor chip, 1:1 binding model; read-out: SPR KD
T1 sequence (Q9NYJ7 27-618): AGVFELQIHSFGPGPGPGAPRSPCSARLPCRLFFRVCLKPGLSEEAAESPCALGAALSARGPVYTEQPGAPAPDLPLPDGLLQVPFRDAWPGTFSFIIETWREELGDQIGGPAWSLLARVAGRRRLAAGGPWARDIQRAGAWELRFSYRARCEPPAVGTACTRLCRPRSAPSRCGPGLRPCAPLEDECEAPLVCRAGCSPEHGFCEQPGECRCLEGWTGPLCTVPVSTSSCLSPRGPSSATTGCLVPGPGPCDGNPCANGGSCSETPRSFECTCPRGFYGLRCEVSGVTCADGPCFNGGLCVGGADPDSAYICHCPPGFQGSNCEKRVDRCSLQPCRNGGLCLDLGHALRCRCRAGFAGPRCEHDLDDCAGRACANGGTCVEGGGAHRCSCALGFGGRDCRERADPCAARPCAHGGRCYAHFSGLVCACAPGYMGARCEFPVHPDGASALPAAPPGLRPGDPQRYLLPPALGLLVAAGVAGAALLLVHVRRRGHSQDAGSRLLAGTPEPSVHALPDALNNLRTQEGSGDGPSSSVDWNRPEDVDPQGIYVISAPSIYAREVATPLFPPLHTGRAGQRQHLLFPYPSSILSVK
How it was run: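 Biotinylated human DLL3 was captured on a streptavidin chip with a reference surface. Compounds at several concentrations were injected at 100 μL/minute in phosphate buffer (137 mM NaCl, 2.7 mM KCl, 0.05% P20, 2% DMSO). Affinity and kinetics came from 1:1 model fits of the sensorgrams.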

Compound	Kd [nM]
CC[C@H](C)[C@H](NC(=O)[C@@H](NC(=O)[C@H](Cc1c[nH]c2ccccc12)NC(C)=O)[C@@H](C)O)C(=O)N[C@H]1CSSC[C@@H](C(=O)N[C@@H](Cc2c[nH]c3ccccc23)C(=O)N2CCC[C@H]2C(=O)NCC(=O)NCC(=O)NCCCOCCOCCOCCCNC(=O)CCC(=O)N[C@H](CCCCNC(=O)CN2CCN(CC(=O)O)CCN(CC(=O)O)CCN(CC(=O)O)CC2)C(N)=O)NC(=O)[C@H](CC(=O)O)NC(=O)[C@H](Cc2cnc[nH]2)NC(=O)[C@H](Cc2ccc3ccccc3c2)NC(=O)[C@H](CC(N)=O)NC(=O)[C@H](CC(N)=O)NC1=O [compound 167, Ac-W-T-I-C(3)-N-N-(2Nal)-H-D-C(3)-W-P-G-G-TTDS-[D-Lys(DOTA)]-NH2] (Ac-WTICNN[2Nal]HDCWPGG-{TtdsdLys(DOTA)NH2}; disulfide 4-10)	< 1
CCC(CC)[C@H](NC(=O)C(NC(=O)[C@H](Cc1c[nH]c2ccccc12)NC(C)=O)[C@@H](C)O)C(=O)N[C@H]1CSSC[C@@H](C(=O)N[C@@H](Cc2c[nH]c3ncccc23)C(=O)N2CCC[C@H]2C(=O)N[C@H](CCCCNC(=O)CN2CCN(CC(=O)O)CCN(CC(=O)O)CCN(CC(=O)O)CC2)C(N)=O)NC(=O)[C@H](CC(=O)O)NC(=O)[C@H](Cc2cnc[nH]2)NC(=O)[C@H](Cc2ccc3ccccc3c2)NC(=O)[C@H](CC(N)=O)NC(=O)[C@H](CC(N)=O)NC1=O (stereo partly drawn) [compound 193, Ac-W-T-(Env)-C(3)-N-N-(2Nal)-H-D-C(3)-(7-Aza-W)-P-[D-Lys(DOTA)]-NH2] (Ac-W[ξThr(3R)][Nva(3-Et)]CNN[2Nal]HDC[Trp(7-aza)]P[dK](DOTA)-NH2; disulfide 4-10)	< 1
CC(=O)N[C@@H](Cc1c[nH]c2ccccc12)C(=O)NC(C(=O)N[C@H](C(=O)N[C@H]1CSSC[C@@H](C(=O)N[C@@H](Cc2c[nH]c3ncccc23)C(=O)N2CCC[C@H]2C(=O)N[C@H](CCCCNC(=O)CN2CCN(CC(=O)O)CCN(CC(=O)O)CCN(CC(=O)O)CC2)C(N)=O)NC(=O)[C@H](CC(=O)O)NC(=O)[C@H](Cc2cnc[nH]2)NC(=O)[C@H](Cc2ccc3ccccc3c2)NC(=O)[C@H](CC(N)=O)NC(=O)[C@H](C)NC1=O)C1CCCCC1)[C@@H](C)O (stereo partly drawn) [compound 194, Ac-W-T-(Chg)-C(3)-A-N-(2Nal)-H-D-C(3)-(7-Aza-W)-P-[D-Lys(DOTA)]-NH2] (Ac-W[ξThr(3R)][Chg]CAN[2Nal]HDC[Trp(7-aza)]P[dK](DOTA)-NH2; disulfide 4-10)	< 1
CC(=O)N[C@@H](Cc1c[nH]c2ccccc12)C(=O)N[C@H](C(=O)N[C@@H](CC1CCCCC1)C(=O)N[C@H]1CSSC[C@@H](C(=O)N[C@@H](Cc2c[nH]c3ncccc23)C(=O)N2CCC[C@H]2C(=O)N[C@H](CCCCNC(=O)CN2CCN(CC(=O)O)CCN(CC(=O)O)CCN(CC(=O)O)CC2)C(N)=O)NC(=O)[C@H](CC(=O)O)NC(=O)[C@H](Cc2cnc[nH]2)NC(=O)[C@H](Cc2ccc3ccccc3c2)NC(=O)[C@H](CC(N)=O)NC(=O)[C@H](C)NC1=O)[C@@H](C)O [compound 195, Ac-W-T-(CHA)-C(3)-A-N-(2Nal)-H-D-C(3)-(7-Aza-W)-P-[D-Lys(DOTA)]-NH2] (Ac-WT[Cha]CAN[2Nal]HDC[Trp(7-aza)]P[dK](DOTA)-NH2; disulfide 4-10)	< 1
CCC(CC)[C@H](NC(=O)[C@@H](NC(=O)[C@H](Cc1c[nH]c2ccccc12)NC(C)=O)[C@@H](C)O)C(=O)N[C@H]1CSSC[C@@H](C(=O)N[C@@H](Cc2c[nH]c3ncccc23)C(=O)N2CCC[C@H]2C(=O)N[C@H](CCCCNC(=O)CN2CCN(CC(=O)O)CCN(CC(=O)O)CCN(CC(=O)O)CC2)C(N)=O)NC(=O)[C@H](CC(=O)O)NC(=O)[C@H](Cc2cnc[nH]2)NC(=O)[C@H](Cc2ccc3ccccc3c2)NC(=O)[C@H](CC(N)=O)NC(=O)[C@H](C)NC1=O [compound 196, Ac-W-T-(Env)-C(3)-A-N-(2Nal)-H-D-C(3)-(7-Aza-W)-P-[D-Lys(DOTA)]-NH2] (Ac-WT[Nva(3-Et)]CAN[2Nal]HDC[Trp(7-aza)]P[dK](DOTA)-NH2; disulfide 4-10)	< 1
CC(=O)N[C@@H](Cc1c[nH]c2ccccc12)C(=O)N[C@H](C(=O)N[C@H](C(=O)N[C@H]1CSSC[C@@H](C(=O)N[C@@H](Cc2c[nH]c3ncccc23)C(=O)N2CCC[C@H]2C(=O)N[C@H](CCCCNC(=O)CN2CCN(CC(=O)O)CCN(CC(=O)O)CCN(CC(=O)O)CC2)C(N)=O)NC(=O)[C@H](CC(=O)O)NC(=O)[C@H](Cc2cnc[nH]2)NC(=O)[C@H](Cc2ccc3ccccc3c2)NC(=O)[C@H](C)NC(=O)[C@H](CC(N)=O)NC1=O)C1CCCCC1)[C@@H](C)O [compound 197, Ac-W-T-(Chg)-C(3)-N-A-(2Nal)-H-D-C(3)-(7-Aza-W)-P-[D-Lys(DOTA)]-NH2] (Ac-WT[Chg]CNA[2Nal]HDC[Trp(7-aza)]P[dK](DOTA)-NH2; disulfide 4-10)	< 1

Second part, the compound after the results:

Kd [nM]	Compound
< 1	CC(=O)N[C@@H](Cc1c[nH]c2ccccc12)C(=O)N[C@H](C(=O)N[C@@H](CC1CCCCC1)C(=O)N[C@H]1CSSC[C@@H](C(=O)N[C@@H](Cc2c[nH]c3ncccc23)C(=O)N2CCC[C@H]2C(=O)N[C@H](CCCCNC(=O)CN2CCN(CC(=O)O)CCN(CC(=O)O)CCN(CC(=O)O)CC2)C(N)=O)NC(=O)[C@H](CC(=O)O)NC(=O)[C@H](Cc2cnc[nH]2)NC(=O)[C@H](Cc2ccc3ccccc3c2)NC(=O)[C@H](C)NC(=O)[C@H](CC(N)=O)NC1=O)[C@@H](C)O [compound 198, Ac-W-T-(CHA)-C(3)-N-A-(2Nal)-H-D-C(3)-(7-Aza-W)-P-[D-Lys(DOTA)]-NH2] (Ac-WT[Cha]CNA[2Nal]HDC[Trp(7-aza)]P[dK](DOTA)-NH2; disulfide 4-10)
< 1	CCC(CC)[C@H](NC(=O)[C@@H](NC(=O)[C@H](Cc1c[nH]c2ccccc12)NC(C)=O)[C@@H](C)O)C(=O)N[C@H]1CSSC[C@@H](C(=O)N[C@@H](Cc2c[nH]c3ncccc23)C(=O)N2CCC[C@H]2C(=O)N[C@H](CCCCNC(=O)CN2CCN(CC(=O)O)CCN(CC(=O)O)CCN(CC(=O)O)CC2)C(N)=O)NC(=O)[C@H](CC(=O)O)NC(=O)[C@H](Cc2c[nH]cn2)NC(=O)[C@H](Cc2ccc3ccccc3c2)NC(=O)[C@H](C)NC(=O)[C@H](CC(N)=O)NC1=O [compound 199, Ac-W-T-(Env)-C(3)-N-A-(2Nal)-H-D-C(3)-(7-Aza-W)-P-[D-Lys(DOTA)]-NH2] (Ac-WT[Nva(3-Et)]CNA[2Nal]HDC[Trp(7-aza)]P[dK](DOTA)-NH2; disulfide 4-10)
1 to 10	CCC(CC)[C@H](NC(=O)[C@@H](NC(=O)[C@H](Cc1c[nH]c2ccccc12)NC(C)=O)[C@@H](C)O)C(=O)N[C@H]1CSSC[C@@H](C(=O)N[C@@H](Cc2c[nH]c3ncccc23)C(=O)N2CCC[C@H]2C(=O)N[C@H](CCCCNC(=O)C[C@H]2CC[C@H](NC(=O)CN3CCN(CC(=O)O)CCN(CC(=O)O)CCN(CC(=O)O)CC3)CC2)C(N)=O)NC(=O)[C@H](CC(=O)O)NC(=O)[C@H](Cc2cnc[nH]2)NC(=O)[C@H](Cc2ccc3ccccc3c2)NC(=O)[C@H](CC(N)=O)NC(=O)[C@H](CC(N)=O)NC1=O [compound 202, Ac-W-T-(Env)-C(3)-N-N-(2Nal)-H-D-C(3)-(7-Aza-W)-P-[D-Lys(Chx-DOTA)]-NH2] (Ac-WT[Nva(3-Et)]CNN[2Nal]HDC[Trp(7-aza)]P[dK](X4)-NH2; disulfide 4-10)
